According to patent publication US20250296959A1, “B7-H3 TARGETING PEPTIDES AND CONSTRUCTS THEREOF” (Mariana Oncology Inc., priority 2024, published 2025):
Starred links: 1 amine or outer side, 2 acyl side, 3 side chain; linkers in the order of their positions; H or OH if unused. Positions of bridges follow the written chain, without caps; N, C: chain ends. Non-standard residues stand in square brackets, D forms with d. Residues, ends and D or L forms follow the SMILES beside them. Groups on a side chain read outwards from the residue. *: point of attachment. Ala(piperidin-4-yl) = O=C([C@H](CC1CCN([*:3])CC1)N[*:1])[*:2]; DOTA = O=C(O)CN1CCN(CC(=O)O)CCN(CC(=O)*)CCN(CC(=O)O)CC1; Trp(5-F) = N[C@@H](Cc1c[nH]c2ccc(F)cc12)C(=O)O; X11 = O=C(CCCc1ccc(I)cc1)NCCOCCOCCOCCOCC(=O)*; PEG8 = NCCOCCOCCOCCOCCOCCOCCOCCOCCC(=O)O; Ala(4-THP) = N[C@@H](CC1CCOCC1)C(=O)O; Val(3-OH) = CC(C)(O)[C@H](N)C(=O)O; X14 = CC(C)CC[C@H](NC(N)=O)C(=O)*; Tle = CC(C)(C)[C@H](N)C(=O)O; hLeu = CC(C)CC[C@H](N)C(=O)O; Nle = CCCC[C@H](N)C(=O)O; PEG2 = NCCOCCOCCC(=O)O

What follows are compounds tested against T1, human 4lg B7-H3 (Homo sapiens, UniProt Q5ZPR3) (assay: Affinity determination by surface plasmon resonance (SPR) to 4Ig B7-H3). Conditions: SPR KD—37° C., 4Ig B7-H3; 37° C. flow cell temperature.
T1 sequence (Q5ZPR3 29-534): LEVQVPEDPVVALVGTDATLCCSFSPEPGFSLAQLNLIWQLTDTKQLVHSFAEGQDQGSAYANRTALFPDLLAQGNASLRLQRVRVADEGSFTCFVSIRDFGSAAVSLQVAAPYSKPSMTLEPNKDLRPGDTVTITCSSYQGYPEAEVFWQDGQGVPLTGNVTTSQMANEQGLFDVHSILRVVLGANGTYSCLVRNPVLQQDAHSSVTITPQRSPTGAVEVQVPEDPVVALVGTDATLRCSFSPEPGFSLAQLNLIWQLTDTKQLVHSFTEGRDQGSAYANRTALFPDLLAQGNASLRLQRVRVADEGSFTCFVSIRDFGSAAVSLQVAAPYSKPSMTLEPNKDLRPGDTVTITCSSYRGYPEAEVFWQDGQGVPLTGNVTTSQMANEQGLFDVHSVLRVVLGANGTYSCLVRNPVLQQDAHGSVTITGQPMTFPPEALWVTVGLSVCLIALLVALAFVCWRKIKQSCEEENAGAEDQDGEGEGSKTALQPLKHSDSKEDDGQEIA

SMILES	Kd
CCCC[C@H](NC(C)=O)C(=O)N[C@@H](Cc1ccc(O)cc1)C(=O)N[C@H]1CSSC[C@@H](C(=O)N[C@@H](Cc2c[nH]c3ccccc23)C(=O)N[C@@H](Cc2ccccc2)C(N)=O)NC(=O)[C@H](Cc2ccc(O)cc2)NC(=O)[C@H](C(C)C)NC(=O)[C@H](CC(=O)O)NC(=O)[C@H](Cc2ccc(O)cc2)NC(=O)[C@H](CCCCN)NC(=O)CNC(=O)[C@H](C(C)C)NC1=O [Cpd #7, Ac-Nle-Y-C-V-G-K-Y-D-V-Y-C-W-F-CONH2] (Ac-[Nle]YCVGKYDVYCWF-NH2; disulfide 3-11)	10 to 100 nM
CC(=O)N[C@@H](CCC(C)C)C(=O)N[C@@H](Cc1ccc(O)cc1)C(=O)N[C@H]1CSSC[C@@H](C(=O)N[C@@H](Cc2c[nH]c3ccc(F)cc23)C(=O)N[C@@H](Cc2ccccc2)C(=O)N[C@H](C(=O)N[C@H](CCCCNC(=O)CN2CCN(CC(=O)O)CCN(CC(=O)O)CCN(CC(=O)O)CC2)C(=O)O)C(C)(C)O)NC(=O)[C@H](Cc2ccc(O)cc2)NC(=O)[C@H](C(C)C)NC(=O)[C@H](CC(=O)O)NC(=O)[C@H](CC2CCOCC2)NC(=O)[C@H](CC2CCN(C(=O)COCCOCCOCCOCCNC(=O)CCCc3ccc(I)cc3)CC2)NC(=O)CNC(=O)[C@H](C(C)(C)C)NC1=O [Cpd #364, Ac-hLeu-Y-C-Tbg-G-Pip(PEG4-AB)Ala-ThpA-D-V-Y-C-5FW-F-hydroxyVal-dLys(DOTA)-COOH] (Ac-[hLeu]YC[Tle]G[Ala(piperidin-4-yl)](X11)[Ala(4-THP)]DVYC[Trp(5-F)]F[Val(3-OH)][dK](DOTA)-OH; disulfide 3-11)	1 to 10 nM
CC(C)CC[C@H](NC(=O)CCOCCOCCOCCOCCOCCOCCOCCOCCNC(=O)CN1CCN(CC(=O)O)CCN(CC(=O)O)CCN(CC(=O)O)CC1)C(=O)N[C@@H](Cc1ccc(O)cc1)C(=O)N[C@H]1CSSC[C@@H](C(=O)N[C@@H](Cc2c[nH]c3ccc(F)cc23)C(=O)N[C@@H](Cc2ccccc2)C(=O)N[C@H](C(N)=O)C(C)(C)O)NC(=O)[C@H](Cc2ccc(O)cc2)NC(=O)[C@H](C(C)C)NC(=O)[C@H](CC(=O)O)NC(=O)[C@H](CC2CCOCC2)NC(=O)[C@H](CCCCN)NC(=O)CNC(=O)[C@H](C(C)(C)C)NC1=O [Cpd #391, DOTA-PEG8-hLeu-Y-C-Tbg-G-K-ThpA-D-V-Y-C-5FW-F-hydroxyVal-CONH2] ({DOTA-PEG8}-[hLeu]YC[Tle]GK[Ala(4-THP)]DVYC[Trp(5-F)]F[Val(3-OH)]-NH2; disulfide 3-11)	1 to 10 nM
CC(=O)N[C@@H](CCC(C)C)C(=O)N[C@@H](Cc1ccc(O)cc1)C(=O)N[C@H]1CSSC[C@@H](C(=O)N[C@@H](Cc2c[nH]c3ccc(F)cc23)C(=O)N[C@@H](Cc2ccccc2)C(=O)N[C@H](C(=O)N[C@H](CCC(=O)O)C(N)=O)C(C)(C)O)NC(=O)[C@H](Cc2ccc(O)cc2)NC(=O)[C@H](C(C)C)NC(=O)[C@H](CC(=O)O)NC(=O)[C@H](CC2CCN(C(=O)CCOCCOCCNC(=O)CN3CCN(CC(=O)O)CCN(CC(=O)O)CCN(CC(=O)O)CC3)CC2)NC(=O)[C@H](CC2CCNCC2)NC(=O)CNC(=O)[C@H](C(C)(C)C)NC1=O [Cpd #458, Ac-hLeu-Y-C-Tbg-G-PipAla-Pip(PEG2-DOTA)Ala-D-V-Y-C-5FW-F-hydroxyVal-dGlu-CONH2] (Ac-[hLeu]YC[Tle]G[Ala(piperidin-4-yl)][Ala(piperidin-4-yl)]([PEG2-DOTA])DVYC[Trp(5-F)]F[Val(3-OH)][dE]-NH2; disulfide 3-11)	< 1 nM
CC(C)CC[C@H](NC(N)=O)C(=O)N[C@@H](Cc1ccc(O)cc1)C(=O)N[C@H]1CSSC[C@@H](C(=O)N[C@@H](Cc2c[nH]c3ccc(F)cc23)C(=O)N[C@@H](Cc2ccccc2)C(=O)N[C@H](C(=O)N[C@H](CCCCNC(=O)CN2CCN(CC(=O)O)CCN(CC(=O)O)CCN(CC(=O)O)CC2)C(=O)O)C(C)(C)O)NC(=O)[C@H](Cc2ccc(O)cc2)NC(=O)[C@H](C(C)C)NC(=O)[C@H](CC(=O)O)NC(=O)[C@H](CC2CCOCC2)NC(=O)[C@H](CC2CCNCC2)NC(=O)CNC(=O)[C@H](C(C)(C)C)NC1=O [Cpd #468, urea-hLeu-Y-C-Tbg-G-PipAla-ThpA-D-V-Y-C-5FW-F-hydroxyVal-dLys(DOTA)-COOH] (X14-YC[Tle]G[Ala(piperidin-4-yl)][Ala(4-THP)]DVYC[Trp(5-F)]F[Val(3-OH)][dK](DOTA)-OH; disulfide 2-10)	< 1 nM

Same assay, conditions: read-out: SPR KD—37° C.; 4Ig B7-H3; 37° C. flow cell temperature

SMILES	Kd
CC(=O)N[C@@H](CCC(C)C)C(=O)N[C@@H](Cc1ccc(O)cc1)C(=O)N[C@H]1CSSC[C@@H](C(=O)N[C@@H](Cc2c[nH]c3ccc(F)cc23)C(=O)N[C@@H](Cc2ccccc2)C(=O)N[C@H](C(=O)N[C@H](CCCCNC(=O)CN2CCN(CC(=O)O)CCN(CC(=O)O)CCN(CC(=O)O)CC2)C(=O)O)C(C)(C)O)NC(=O)[C@H](Cc2ccc(O)cc2)NC(=O)[C@H](C(C)C)NC(=O)[C@H](CC(=O)O)NC(=O)[C@H](CC2CCC(O)CC2)NC(=O)[C@H](CC2CCNCC2)NC(=O)CNC(=O)[C@H](C(C)(C)C)NC1=O (single isomer, unassigned) [compound 480, Ac-hLeu-Y-C-Tbg-G-PipAla-4OHCha(pk2)-D-V-Y-C-5FW-F-hydroxyVal-dLys(DOTA)-COOH]	< 1 nM
